Measured values published in PMC7413254 (Nature Communications, 2020).

Tests used:
Assay type in all cases: cell-based
[1] = molecular target: T1, PfCRT^Dd2 (Plasmodium falciparum, UniProt Q9N623, A220S/I356T/K76T/M74I/N326S/N75E/Q271E/R371I); experiment: [3H]CQ uptake into Xenopus oocytes, cis-inhibition by unlabelled solute; conditions: PfCRTDd2 oocytes, background [3H]CQ accumulation subtracted, normalised to oocyte type control
Excerpt: (§1) The orientation of PfCRT in the parasite’s DV membrane, and also in the oocyte plasma membrane, is such that its N- and C-termini extend into the cytosol. The oocytes were suspended in a reaction buffer adjusted to pH 5.5 to mimic the pH of the DV lumen[1],[2]. In this scenario, the transport of a substrate via PfCRT from the acidic extracellular solution into the oocyte cytosol[15] is analogous to the parasite’s PfCRT-mediated efflux of a substrate from the acidic DV and into the cytosol. Unless specified otherwise, this is the direction in which substrate transport was measured in the oocyte assays.
(§2) Unless specified otherwise, the transport assays were conducted over 1.5 h at 27.5 °C and the reaction buffer was ND96 (96 mM NaCl, 2 mM KCl, 1 mM MgCl2, 1.8 mM CaCl2, 10 mM MES and 10 mM Tris-base) at pH 5.5.
(§3) Ten oocytes were washed twice with the relevant ND96 buffer. […] The assay was terminated by removing the reaction buffer and washing the oocytes with ice-cold ND96 buffer. The oocytes were lysed in 10% (w/v) sodium dodecyl sulfate (SDS) and the radioactivity accumulated within each oocyte was measured with a MicroBeta^2 microplate liquid scintillation analyser (PerkinElmer).
(§4) At least four independent experiments were performed (on different days and using oocytes from different frogs), and within each experiment measurements were made from ten oocytes per treatment.

[2] = molecular target: T2, PfCRT^Ecu1110 (Plasmodium falciparum, UniProt Q9N623, A220S/I356L/K76T/N326D); experiment: as above; conditions: for PfCRT-mediated [3H]CQ transport, cis-inhibition (% PfCRTEcu1110 control): PfCRTEcu1110 oocytes, background [3H]CQ accumulation subtracted, normalised to oocyte type control; for [3H]CQ transport (% PfCRTEcu1110 control), cis-inhibition, PfCRTEcu1110: PfCRT-mediated component (background subtracted), sheet title says normalised to PfCRTDd2 control, mean ± SEM, SEM
Excerpt: as §1, §2, §3, §4

[3] = molecular target: PfCRT^3D7 (Plasmodium falciparum, UniProt Q8IBZ9); experiment: cell-based; conditions: for PfCRT-mediated [3H]CQ transport, trans-stimulation (% PfCRT3D7 control): PfCRT3D7 oocytes, normalised to oocyte type control
Experimental: as §2
(§5) The intracellular concentrations were calculated using previous estimates of the volume of stage V–VI oocytes (~400 nL[60]). […] The oocytes were injected with VF-6 suspended in 25 nL ND96 buffer adjusted to pH 5.0, 5.5, 6.0 or 7.0, which corresponded to the injection of 2.5–250 fmol of H^+. The Na^+-dependence of the trans-stimulatory effect of VF-6 was assessed by injecting the oocytes with VF-6 suspended in ND96 buffer (pH 5.5) or a Na^+-free version of this buffer (the Na^+ was replaced with choline).
as §4

[4] = molecular target: T1, PfCRT^Dd2; experiment: cell-based; conditions: for PfCRT-mediated [3H]CQ transport, trans-stimulation (% PfCRTDd2 control): PfCRTDd2 oocytes, normalised to oocyte type control; for [3H]CQ transport (% PfCRTDd2 control), trans-stimulation, PfCRTDd2: PfCRT-mediated component (background subtracted), mean ± SEM, SEM
Experimental: as §2, §5, §4

[5] = molecular target: T2, PfCRT^Ecu1110; experiment: cell-based; conditions: for PfCRT-mediated [3H]CQ transport, trans-stimulation (% PfCRTEcu1110 control): PfCRTEcu1110 oocytes, normalised to oocyte type control; for [3H]CQ transport (% PfCRTDd2 control), trans-stimulation, PfCRTEcu1110: PfCRT-mediated component (background subtracted), sheet title says normalised to PfCRTDd2 control, mean ± SEM, SEM
Experimental: as §2, §5, §4

[6] = [test solute]i = 5 mM (intracellular)
[7] = [test solute]i = 45 mM (intracellular; 30 mM for some solutes due to solubility)
[8] = [test solute]i = 5 mM (injected)
[9] = [test solute]i = 45 mM (30 mM for some solutes due to solubility)

T2 sequence (Q9N623 whole entry A220S/I356L/K76T/N326D): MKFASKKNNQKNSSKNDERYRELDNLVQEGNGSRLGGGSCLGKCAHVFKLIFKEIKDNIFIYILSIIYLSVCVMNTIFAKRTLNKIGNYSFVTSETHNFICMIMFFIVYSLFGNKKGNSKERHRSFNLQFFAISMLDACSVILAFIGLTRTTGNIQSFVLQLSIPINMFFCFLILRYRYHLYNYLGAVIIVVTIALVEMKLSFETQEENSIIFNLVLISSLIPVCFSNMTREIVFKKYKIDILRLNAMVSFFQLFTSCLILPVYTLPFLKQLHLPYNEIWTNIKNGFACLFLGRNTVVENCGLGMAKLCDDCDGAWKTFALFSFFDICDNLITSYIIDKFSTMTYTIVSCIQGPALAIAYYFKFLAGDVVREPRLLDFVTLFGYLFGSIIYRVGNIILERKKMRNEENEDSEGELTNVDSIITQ
T1 sequence (Q9N623 whole entry A220S/I356T/K76T/M74I/N326S/N75E/Q271E/R371I): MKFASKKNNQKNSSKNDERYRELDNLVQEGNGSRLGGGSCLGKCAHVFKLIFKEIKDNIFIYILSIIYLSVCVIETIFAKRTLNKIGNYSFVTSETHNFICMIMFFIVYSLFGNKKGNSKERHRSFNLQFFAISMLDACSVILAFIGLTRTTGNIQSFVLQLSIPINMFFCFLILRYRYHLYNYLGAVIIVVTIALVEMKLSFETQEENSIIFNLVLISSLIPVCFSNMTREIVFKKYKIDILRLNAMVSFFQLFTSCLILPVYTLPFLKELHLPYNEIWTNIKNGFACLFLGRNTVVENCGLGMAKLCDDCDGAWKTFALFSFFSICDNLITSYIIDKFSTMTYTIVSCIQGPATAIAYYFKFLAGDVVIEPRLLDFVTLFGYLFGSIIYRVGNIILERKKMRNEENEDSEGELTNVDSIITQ
PfCRT^3D7, sequence (Q8IBZ9 59-398): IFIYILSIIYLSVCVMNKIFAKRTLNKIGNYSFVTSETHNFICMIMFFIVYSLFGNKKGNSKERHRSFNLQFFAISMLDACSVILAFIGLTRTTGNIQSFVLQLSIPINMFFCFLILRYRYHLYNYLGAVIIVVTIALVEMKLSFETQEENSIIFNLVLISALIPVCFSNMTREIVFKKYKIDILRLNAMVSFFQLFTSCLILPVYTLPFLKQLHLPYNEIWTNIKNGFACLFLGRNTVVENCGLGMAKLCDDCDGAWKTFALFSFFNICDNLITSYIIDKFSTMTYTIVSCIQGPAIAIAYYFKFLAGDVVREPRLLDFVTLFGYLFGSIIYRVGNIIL

Substance | PfCRT-mediated [3H]CQ transport, cis-inhibition (% PfCRTDd2 control) ([1]; [test solute] = 0.5 mM) | PfCRT-mediated [3H]CQ transport, cis-inhibition (% PfCRTDd2 control) ([1]; [test solute] = 1 mM) | PfCRT-mediated [3H]CQ transport, cis-inhibition (% PfCRTDd2 control) ([1]; [test solute] = 2 mM) | PfCRT-mediated [3H]CQ transport, cis-inhibition (% PfCRTEcu1110 control) ([2]; [test solute] = 0.5 mM) | PfCRT-mediated [3H]CQ transport, cis-inhibition (% PfCRTEcu1110 control) ([2]; [test solute] = 1 mM) | PfCRT-mediated [3H]CQ transport, cis-inhibition (% PfCRTEcu1110 control) ([2]; [test solute] = 2 mM) | [3H]CQ transport (% PfCRTEcu1110 control), cis-inhibition, PfCRTEcu1110 ([2]; [test solute] = 2 mM) | [3H]CQ transport (% PfCRT3D7 control), trans-stimulation, PfCRT3D7 ([3]; SEM) | PfCRT-mediated [3H]CQ transport, trans-stimulation (% PfCRT3D7 control) [3, 6] | PfCRT-mediated [3H]CQ transport, trans-stimulation (% PfCRT3D7 control) [3, 7] | PfCRT-mediated [3H]CQ transport, trans-stimulation (% PfCRTDd2 control) [4, 6] | PfCRT-mediated [3H]CQ transport, trans-stimulation (% PfCRTDd2 control) [4, 7] | [3H]CQ transport (% PfCRTDd2 control), trans-stimulation, PfCRTDd2 [4, 8] | [3H]CQ transport (% PfCRTDd2 control), trans-stimulation, PfCRTDd2 [4, 9] | PfCRT-mediated [3H]CQ transport, trans-stimulation (% PfCRTEcu1110 control) [5, 6] | PfCRT-mediated [3H]CQ transport, trans-stimulation (% PfCRTEcu1110 control) [5, 7] | [3H]CQ transport (% PfCRTDd2 control), trans-stimulation, PfCRTEcu1110 [5, 8] | [3H]CQ transport (% PfCRTDd2 control), trans-stimulation, PfCRTEcu1110 [5, 9] | [3H]CQ transport (% PfCRTEcu1110 control), cis-inhibition, PfCRTEcu1110 ([2]; [test solute] = 0.5 mM) | [3H]CQ transport (% PfCRTEcu1110 control), cis-inhibition, PfCRTEcu1110 ([2]; [test solute] = 1 mM)
AEALERMF [AF-8] | 61 ± 1.3 % PfCRTDd2 control | 52 ± 2.6 % PfCRTDd2 control | 19 ± 0.1 % PfCRTDd2 control | 52 ± 2.9 % PfCRTEcu1110 control | 41 ± 2.1 % PfCRTEcu1110 control | 32 ± 1.1 % PfCRTEcu1110 control | 10 ± 0.06 % PfCRTEcu1110 control | 0.1 ± 0.03 | 97 ± 3.2 % PfCRT3D7 control | 97 ± 3.5 % PfCRT3D7 control | 97 ± 2.8 % PfCRTDd2 control | 96 ± 4.3 % PfCRTDd2 control | 97 ± 2.8 % PfCRTDd2 control | 96 ± 4.3 % PfCRTDd2 control | 96 ± 3.1 % PfCRTEcu1110 control | 98 ± 4.1 % PfCRTEcu1110 control | 29 ± 1.0 % PfCRTEcu1110 control | 30 ± 1.9 % PfCRTEcu1110 control |  | 
DLDDALDK [DK-8] | 44 ± 3.7 % PfCRTDd2 control | 32 ± 1.5 % PfCRTDd2 control | 24 ± 0.8 % PfCRTDd2 control | 49 ± 1.4 % PfCRTEcu1110 control | 39 ± 2.1 % PfCRTEcu1110 control | 30 ± 0.8 % PfCRTEcu1110 control | 9.0 ± 0.05 % PfCRTEcu1110 control |  | 96 ± 3.3 % PfCRT3D7 control | 96 ± 3.4 % PfCRT3D7 control | 98 ± 3.3 % PfCRTDd2 control | 95 ± 4.1 % PfCRTDd2 control | 98 ± 3.3 % PfCRTDd2 control | 95 ± 4.1 % PfCRTDd2 control | 95 ± 4.9 % PfCRTEcu1110 control | 97 ± 2.9 % PfCRTEcu1110 control | 29 ± 1.5 % PfCRTEcu1110 control | 29 ± 1.1 % PfCRTEcu1110 control | 15 ± 0.6 % PfCRTEcu1110 control | 13 ± 0.1 % PfCRTEcu1110 control
DLPVG [DG-5] | 29 ± 0.6 % PfCRTDd2 control | 22 ± 1.3 % PfCRTDd2 control | 11 ± 0.1 % PfCRTDd2 control | 46 ± 1.8 % PfCRTEcu1110 control | 33 ± 2.7 % PfCRTEcu1110 control |  | 5.0 ± 0.05 % PfCRTEcu1110 control |  | 128 ± 2.2 % PfCRT3D7 control | 146 ± 3.2 % PfCRT3D7 control | 98 ± 1.0 % PfCRTDd2 control | 113 ± 1.1 % PfCRTDd2 control | 98 ± 1.0 % PfCRTDd2 control | 113 ± 1.1 % PfCRTDd2 control | 115 ± 1.5 % PfCRTEcu1110 control | 118 ± 1.1 % PfCRTEcu1110 control | 35 ± 1.5 % PfCRTEcu1110 control | 36 ± 1.3 % PfCRTEcu1110 control | 14 ± 0.5 % PfCRTEcu1110 control | 10 ± 0.6 % PfCRTEcu1110 control
DMPNALS [DS-7, host-derived peptide upstream of PL-4] | 49 ± 1.1 % PfCRTDd2 control | 41 ± 1.0 % PfCRTDd2 control | 27 ± 0.2 % PfCRTDd2 control | 51 ± 4.1 % PfCRTEcu1110 control | 48 ± 1.4 % PfCRTEcu1110 control | 29 ± 1.5 % PfCRTEcu1110 control | 9.0 ± 0.05 % PfCRTEcu1110 control |  | 136 ± 4.1 % PfCRT3D7 control | 188 ± 4.6 % PfCRT3D7 control | 97 ± 3.6 % PfCRTDd2 control | 112 ± 3.5 % PfCRTDd2 control | 97 ± 3.6 % PfCRTDd2 control | 112 ± 3.5 % PfCRTDd2 control | 128 ± 3.1 % PfCRTEcu1110 control | 135 ± 4.2 % PfCRTEcu1110 control | 39 ± 1.6 % PfCRTEcu1110 control | 41 ± 1.9 % PfCRTEcu1110 control | 16 ± 0.2 % PfCRTEcu1110 control | 15 ± 0.4 % PfCRTEcu1110 control
